The numbers were not newly measured in US20060035883A1, “Novel serotonin receptor ligands and their uses thereof” (priority 2004, published 2006), which cites them from elsewhere.

Among the targets are D2 (Homo sapiens, UniProt P14416); α1; α2.
Common to all, as to conditions: read-out: Receptor affinities (Ki)
A further data set addresses T1, 5-HT2C (Homo sapiens, UniProt P28335).
T1 sequence (P28335 33-458): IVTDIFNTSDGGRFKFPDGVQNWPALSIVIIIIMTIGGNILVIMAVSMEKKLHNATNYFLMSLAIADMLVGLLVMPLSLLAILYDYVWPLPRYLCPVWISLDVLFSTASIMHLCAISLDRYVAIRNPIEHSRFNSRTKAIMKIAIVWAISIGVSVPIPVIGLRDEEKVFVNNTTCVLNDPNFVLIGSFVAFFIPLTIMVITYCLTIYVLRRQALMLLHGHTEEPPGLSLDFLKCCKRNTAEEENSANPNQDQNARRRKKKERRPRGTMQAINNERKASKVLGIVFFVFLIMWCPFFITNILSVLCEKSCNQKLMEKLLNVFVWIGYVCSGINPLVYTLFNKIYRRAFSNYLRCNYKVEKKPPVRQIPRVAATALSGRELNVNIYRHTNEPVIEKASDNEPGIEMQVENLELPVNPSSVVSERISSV

In a further data set the target is T2, 5-HT3 (Homo sapiens, UniProt P46098).
T2 sequence (P46098 24-478): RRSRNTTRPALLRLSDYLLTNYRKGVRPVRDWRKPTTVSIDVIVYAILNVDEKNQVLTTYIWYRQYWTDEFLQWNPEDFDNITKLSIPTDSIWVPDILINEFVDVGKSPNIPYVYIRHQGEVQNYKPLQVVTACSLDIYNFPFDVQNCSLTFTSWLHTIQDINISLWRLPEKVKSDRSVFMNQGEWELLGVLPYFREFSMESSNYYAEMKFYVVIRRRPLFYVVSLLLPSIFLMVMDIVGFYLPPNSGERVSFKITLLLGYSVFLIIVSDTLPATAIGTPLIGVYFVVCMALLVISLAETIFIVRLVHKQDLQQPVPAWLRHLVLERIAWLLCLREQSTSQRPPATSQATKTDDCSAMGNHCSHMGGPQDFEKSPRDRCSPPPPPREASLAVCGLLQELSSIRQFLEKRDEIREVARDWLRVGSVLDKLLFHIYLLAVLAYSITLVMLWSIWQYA

Chain of D2 (P14416 whole entry): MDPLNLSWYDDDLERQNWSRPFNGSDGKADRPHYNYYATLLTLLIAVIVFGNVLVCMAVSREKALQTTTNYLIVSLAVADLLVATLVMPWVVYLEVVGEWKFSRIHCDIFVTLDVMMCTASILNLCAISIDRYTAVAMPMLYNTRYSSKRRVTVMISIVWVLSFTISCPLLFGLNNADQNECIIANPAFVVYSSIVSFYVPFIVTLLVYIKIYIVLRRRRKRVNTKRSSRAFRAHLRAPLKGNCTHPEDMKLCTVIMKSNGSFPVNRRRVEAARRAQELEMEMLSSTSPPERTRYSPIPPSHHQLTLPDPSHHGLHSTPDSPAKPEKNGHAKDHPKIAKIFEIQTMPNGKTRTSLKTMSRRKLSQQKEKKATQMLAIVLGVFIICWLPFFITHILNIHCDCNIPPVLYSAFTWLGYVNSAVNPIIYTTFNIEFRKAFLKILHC

For orientation: Ki means the dissociation constant of the complex between target and ligand, obtained from inhibition or displacement. As for `CN1CCN2c3ncccc3Cc3ccccc3C2C1` (stereo not drawn) [Mirtazepine, mirtazepine], the Ki on 5-HT2C was 12 nM; on 5-HT3 it was 8 nM; on D2 it was greater than 1000 nM; on α1 it was 500 nM; on α2, 65 nM.

Consider `CN1CCN2c3ccccc3Cc3ccccc3C2C1` (stereo not drawn) [Mianserin], for which the Ki on D2 was greater than 1000 nM.
